Source: article PMC9027957, “Interspecies Comparisons of the Effects of Potential Antiviral 3-Amidinophenylalanine Derivatives on Cytochrome P450 1A2 Isoenzyme” (Veterinary Sciences, 2022)

Legend:
[1] = 60 min microsomal stability assay (UPLC-MS/MS), rat liver microsomes; format: in vitro ADME; conditions: 50 µM
Description: (§1) Rat, beagle (Gibco, Biocenter, Szeged, Hungary), and cynomolgus monkey (Primacyt, Schwerin, Germany) liver microsomes were exposed to inhibitors MI-432, MI-463, MI-482, or MI-1900 at 50 µM for 60 min. The final microsomal protein concentration in the suspension was 0.6 mg/mL in each case. The reaction buffer (100 mM phosphate buffer pH 7.4) also contained 1 mM nicotinamide adenine dinucleotide phosphate (NADPH), 5 mM MgCl2, 10 mM glucose-6-phosphate (G6P), and 2 IU/mL glucose-6-phosphate dehydrogenase (G6PD). The reaction was terminated by the addition of ice-cold acetonitrile (ACN) with the ratio of sample ACN volume = 1:2. The precipitated protein was removed by centrifugation at 10,000× g for 10 min, and the supernatants were used for subsequent analyses.
(§2) The determination of all analytes was carried out using an UPLC/MS/MS system, which consisted of an HPLC apparatus (SCIEX ExionLC^TM UPLC, Framigham, MA, USA) and a SCIEX Qtrap 4500 triple-quadrupole mass spectrometer (Framigham, MA, USA) equipped with a SCIEX Turbo V electrospray ionization source. The HPLC columns used were LiChrospher RP Select B (125 × 4.0 mm, 5.0 μm, C8 stationary phase). Next, 0.1% trifluoroacetic acid in ultra-purified water (A) and acetonitrile (B) were used as mobile phases for chromatographic separations applying a gradient elution. The HPLC gradient program was the following: between 0 and 10 min, a ratio of 70% A and 30% B; from 10 to 20 min, linearly increasing to a ratio of 50% A and 50% B; from 20 to 21 min, maintained at a ratio of 50% A and 50% B; from 21 to 22 min, linearly decreasing back to a ratio of 70% A and 30% B; and between 22 min and 30 min, maintained at a ratio of 70% A and 30% B. The run time was 30 min, the column temperature was adjusted to 35 °C, and the flow rate was 1 mL/min.

[2] = 60 min microsomal stability assay (UPLC-MS/MS), beagle liver microsomes; format: in vitro ADME; conditions: 50 µM
Description: as §1, §2

[3] = 60 min microsomal stability assay (UPLC-MS/MS), cynomolgus monkey liver microsomes; format: in vitro ADME; conditions: 50 µM
Description: as §1, §2

CYP1A2 [4] = biological target: T1, CYP1A2 (Macaca fascicularis, UniProt O77809); conditions: 2 h, 50 µM
T1 sequence (O77809 1-516): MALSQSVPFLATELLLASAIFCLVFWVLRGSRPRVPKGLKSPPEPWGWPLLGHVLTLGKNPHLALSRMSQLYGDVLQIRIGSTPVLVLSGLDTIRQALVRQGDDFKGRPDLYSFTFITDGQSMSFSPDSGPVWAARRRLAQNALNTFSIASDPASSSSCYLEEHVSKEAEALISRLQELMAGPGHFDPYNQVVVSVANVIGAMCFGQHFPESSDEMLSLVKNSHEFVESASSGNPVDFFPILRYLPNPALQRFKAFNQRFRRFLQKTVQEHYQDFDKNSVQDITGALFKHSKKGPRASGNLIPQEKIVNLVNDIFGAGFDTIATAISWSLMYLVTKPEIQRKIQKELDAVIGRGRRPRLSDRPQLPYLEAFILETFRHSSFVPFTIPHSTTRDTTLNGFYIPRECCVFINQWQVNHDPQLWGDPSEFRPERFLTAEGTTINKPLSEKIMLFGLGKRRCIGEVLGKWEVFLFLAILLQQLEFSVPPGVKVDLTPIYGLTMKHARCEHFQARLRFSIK
Description: For the measurements of CYP1A2 activities, hepatocytes were grown on 24-well collagen-coated membrane inserts (Costar Transwell-PTFE membrane, 6.5 mm, pore size: 0.4 µm, Merck, Darmstadt, Germany). […] The determination of the CYP1A2 activities were performed using the P450-Glo CYP450 Assay (Promega, Madison, WI, USA) according to the manufacturer’s instructions.

CYP1A2 [5] = biological target: T2, CYP1A2 (Rattus norvegicus, UniProt P04799); assay: CYP1A2 fluorometric activity assay in rat hepatic microsomes; format: in vitro ADME, rat (Sprague–Dawley); set-up: Rat (Sprague–Dawley) and beagle (Gibco, Biocenter, Szeged, Hungary, protein concentration: 20 mg/mL) hepatic microsomal preparations; tissue Gibco, Biocenter, Szeged, Hungary; host or cells: liver (hepatic microsomes), Sprague-Dawley rat
T2 sequence (P04799 1-513): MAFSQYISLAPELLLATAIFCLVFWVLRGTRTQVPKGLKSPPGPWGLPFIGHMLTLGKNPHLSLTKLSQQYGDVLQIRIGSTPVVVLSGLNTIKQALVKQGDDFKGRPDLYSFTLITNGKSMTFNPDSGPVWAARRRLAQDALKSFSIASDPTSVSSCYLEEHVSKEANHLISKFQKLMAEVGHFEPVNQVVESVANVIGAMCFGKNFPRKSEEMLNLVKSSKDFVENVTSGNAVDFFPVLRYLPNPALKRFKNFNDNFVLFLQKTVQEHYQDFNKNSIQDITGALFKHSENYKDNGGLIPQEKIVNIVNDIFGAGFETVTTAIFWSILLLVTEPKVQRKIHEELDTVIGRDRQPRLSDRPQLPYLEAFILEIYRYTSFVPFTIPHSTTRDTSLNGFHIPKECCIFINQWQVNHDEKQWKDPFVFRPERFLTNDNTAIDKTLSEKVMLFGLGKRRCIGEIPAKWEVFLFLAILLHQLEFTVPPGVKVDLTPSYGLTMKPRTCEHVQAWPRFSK
Description: The Biovision CYP assay (BioVision, Inc., Kampenhout, Belgium) utilizes a non-fluorescent CYP1A2 substrate capable of transforming into a highly fluorescent metabolite, which can be detected in the visible range. α-naphthoflavone was used as a CYP1A2 reference inhibitor at 6 µM during the experiments. Rat (Sprague–Dawley) and beagle (Gibco, Biocenter, Szeged, Hungary, protein concentration: 20 mg/mL) hepatic microsomal preparations were prepared separately by mixing 25 µL of the obtained rat or beagle microsomal suspension with 2425 µL assay buffer and with 50 µL NADPH generating system (100×). In the case of the cynomolgus monkey microsomal suspension (Primacyt, Schwerin, Germany, protein concentration: 5 mg/mL), the following volumes were applied: in addition to 100 µL of monkey microsomal suspension, the amount of assay buffer and the NADPH generating system were adjusted in order to ensure the original ratios of these components to reach a final volume of 2500 µL. Rat, beagle, and cynomolgus monkey microsomal suspension aliquots (50 µL) were treated with the protease inhibitor 20 µL, 0–1000 µM), the reference compound α-naphthoflavone (20 µL, 30 µM), or the assay buffer without test compounds (20 µL, background control) for 15 min at 37 °C. After incubation, 30 µL of the appropriate CYP1A2 substrate/NADP+ mixture was added to each well, yielding a final reaction volume of 100 µL/well. The protein contents of the obtained microsomes were analysed using bicinchoninic acid protein assay kit (Pierce BCA kit, Thermo Fisher Scientific, Waltham, MA, USA). […] The fluorescence intensities were measured with a fluorometer (Victor X2 2030, Perkin Elmer, Waltham, MA, USA), using λEx/Em = 406/468 nm.

| SMILES | depletion percentage of the parent compound ([1]; Sprague-Dawley, rat, pH 7.4) | depletion percentage of the parent compound ([2]; beagle, dog, pH 7.4) | depletion percentage of the parent compound ([3]; cynomolgus monkey, pH 7.4) | CYP1A2 activity in cynomolgus monkey hepatocytes (CYP1A2 [4]) | rat hepatic microsomal CYP1A2 isoenzyme activity (CYP1A2 [5]; Sprague-Dawley, rat, 15 min, 50 µM) | depletion percentage of the parent compound ([1]; rat microsomes, 0.6 mg/mL protein, mean ± SD (n = 3)) | depletion percentage of the parent compound ([2]; beagle microsomes, 0.6 mg/mL protein, mean ± SD (n = 3)) | depletion percentage of the parent compound ([3]; monkey microsomes, 0.6 mg/mL protein, mean ± SD (n = 3)) | rat hepatic microsomal CYP1A2 isoenzyme activity (CYP1A2 [5]; inhibitors at 50 µM, 15 min at 37 °C, vs untreated control) |
| --- | --- | --- | --- | --- | --- | --- | --- | --- | --- |
| N=C(N)c1cccc(C[C@H](NS(=O)(=O)c2cccc(-c3ccc(Cl)cc3Cl)c2)C(=O)N2CCC(CCN)CC2)c1 [MI-432] | 28 ± 3.1% | 23.8 ± 7% | 19.6 ± 5.8% | significantly decrease the activity of CYP1A2 | did not inhibit CYP1A2 function | – | – | – | – |
| COc1ccc(-c2cccc(S(=O)(=O)N[C@@H](Cc3cccc(C(=N)N)c3)C(=O)N3CCN(C(=O)NC4CCCCC4)CC3)c2)c(OC)c1 [MI-1900] | – | – | – | significantly decrease the activity of CYP1A2 | – | 30.7 ± 11.7% | 23.7 ± 11.1% | 26.7 ± 10.8% | suppressed |
